Test results published in paper PMC2944806, “HLA Class I Binding of HBZ Determines Outcome in HTLV-1 Infection” (PLoS Pathogens, 2010).

What was measured:
[1] = molecular target: T1, HLA class I molecule B*0702 (Homo sapiens, UniProt P01889); assay: REVEAL HLA-peptide binding assay, B*0702; set-up: concentration or dose not given beside the values; conditions: assembly of peptide-HLA complex by ELISA with conformation-dependent anti-HLA antibody, relative to positive control peptide for that allele, comparable within an allele only
T1 construct: purchased ProImmune Ltd., Oxford, UK
Procedure: (§1) The REVEAL HLA-peptide binding assay (ProImmune Ltd., Oxford, UK) was used to quantify peptide-HLA binding. For each allele-peptide combination that was tested, assembly of peptide-HLA complexes was quantified by ELISA with a conformation-dependent anti-HLA antibody. Samples of assembling peptide-HLA complexes were taken at a defined time point and snap-frozen in liquid nitrogen prior to analysis. The assembly for each peptide-HLA complex was then compared against a positive control peptide for that allele as the percentage of assembled peptide relative to that control. We selected four HLA class I alleles and 50 HTLV-1 peptides for each allele. The allele choice was based on allele frequency in the Kagoshima database and included 2 A alleles and 2 B alleles as well as alleles for which we knew that the epitope prediction tended to be poor. The 50 HTLV-1 nonamer peptides for each allele were selected to represent a range of predicted binding affinities, from weak to strong binding peptides. They originated from 4 HTLV-1 reference strain proteins: Tax, HBZ, Gag and Polymerase.
(§2) Note the binding score is with respect to a reference good binding peptide for each allele and therefore scores can be compared within an allele but not between alleles.

[2] = molecular target: T2, HLA class I molecule A*2402 (Homo sapiens, UniProt P04439, D101N/D140Y/D185E/E176V/E190D/F33S/G103R/G107R/I119L/I121M/I306V/K335N/L105A/L180Q/L300P/N151K/N90K/Q86E/Q94H/R106L/R138H/R89G/T104I/T345S/V100E/W191G/Y123F); assay type: binding; conditions: REVEAL assay, assembly of peptide-HLA complex by ELISA with conformation-dependent anti-HLA antibody, relative to positive control peptide for that allele, comparable within an allele only
T2 construct: purchased ProImmune Ltd., Oxford, UK

[3] = molecular target: HLA class I molecule B*3501 (Homo sapiens, UniProt P01889, A329T/A93T/A95T/C349S/D201E/D98Y/E176V/E187L/E204Q/E69T/I218V/K202T/L119I/Q94N/R155S/R180L/S121R/S35A/S48A/T118I/V127L/V306I/V36M/Y140S/Y91F); assay: REVEAL HLA-peptide binding assay, B*3501; conditions: assembly of peptide-HLA complex by ELISA with conformation-dependent anti-HLA antibody, relative to positive control peptide for that allele, comparable within an allele only
Procedure: as §1, §2

[4] = molecular target: T3, HLA class I molecule A*0201 (Homo sapiens, UniProt P04439, D140Y/D185E/D98H/E176V/E277Q/G131W/G231S/I119V/I121R/I166T/I218V/L300P/L318F/N151K/N90K/P208A/P217A/Q86G/Q94H/R138H/R169H/T345S); assay type: binding; conditions: REVEAL assay, assembly of peptide-HLA complex by ELISA with conformation-dependent anti-HLA antibody, relative to positive control peptide for that allele, comparable within an allele only
T3 construct: purchased ProImmune Ltd., Oxford, UK

APLPHTSQC [HTLV-1 nonamer peptide]
Score (experimentally measured binding affinity, % binding compared to control peptide) [1]: 135.12%

AWQNGLLPF [HTLV-1 nonamer peptide]
Score (experimentally measured binding affinity, % binding compared to control peptide) [2]: 92.6%

DLMGEVNYW [HTLV-1 nonamer peptide]
Score (experimentally measured binding affinity, % binding compared to control peptide) [2]: 62.28%

EKAVLDGLL [HTLV-1 nonamer peptide]
Score (experimentally measured binding affinity, % binding compared to control peptide) [2]: 0%

ELVDGLLSL [HTLV-1 nonamer peptide]
Score (experimentally measured binding affinity, % binding compared to control peptide) [3]: 0%
Score (experimentally measured binding affinity, % binding compared to control peptide) [4]: 25.11%

EYLKRKEEE [HTLV-1 nonamer peptide]
Score (experimentally measured binding affinity, % binding compared to control peptide) [2]: 0%

EYQQLWLAA [HTLV-1 nonamer peptide]
Score (experimentally measured binding affinity, % binding compared to control peptide) [2]: 2.7%

GYPGRVNEI [HTLV-1 nonamer peptide]
Score (experimentally measured binding affinity, % binding compared to control peptide) [2]: 82.68%

GYTRQLEGE [HTLV-1 nonamer peptide]
Score (experimentally measured binding affinity, % binding compared to control peptide) [2]: 35.37%

HQLKKFLKI [HTLV-1 nonamer peptide]
Score (experimentally measured binding affinity, % binding compared to control peptide) [2]: 46.49%
Score (experimentally measured binding affinity, % binding compared to control peptide) [4]: 0%

IALETPARI [HTLV-1 nonamer peptide]
Score (experimentally measured binding affinity, % binding compared to control peptide) [2]: 9.68%
Score (experimentally measured binding affinity, % binding compared to control peptide) [4]: 17.01%

ICPINYSLL [HTLV-1 nonamer peptide]
Score (experimentally measured binding affinity, % binding compared to control peptide) [2]: 69.19%

IFSRSASPI [HTLV-1 nonamer peptide]
Score (experimentally measured binding affinity, % binding compared to control peptide) [2]: 62.41%

IWQGDITHF [HTLV-1 nonamer peptide]
Score (experimentally measured binding affinity, % binding compared to control peptide) [2]: 64.83%

KARRRRRAE [HTLV-1 nonamer peptide]
Score (experimentally measured binding affinity, % binding compared to control peptide) [1]: 0%

KQIAEYLKR [HTLV-1 nonamer peptide]
Score (experimentally measured binding affinity, % binding compared to control peptide) [2]: 3.56%

KYKNTLYRL [HTLV-1 nonamer peptide]
Score (experimentally measured binding affinity, % binding compared to control peptide) [2]: 124.9%

KYLYHYLRT [HTLV-1 nonamer peptide]
Score (experimentally measured binding affinity, % binding compared to control peptide) [2]: 2.63%

KYTLQSYGL [HTLV-1 nonamer peptide]
Score (experimentally measured binding affinity, % binding compared to control peptide) [2]: 104.78%

LEAERRKLL [HTLV-1 nonamer peptide]
Score (experimentally measured binding affinity, % binding compared to control peptide) [1]: 1.08%

LLQEKEDLM [HTLV-1 nonamer peptide]
Score (experimentally measured binding affinity, % binding compared to control peptide) [3]: 0%
Score (experimentally measured binding affinity, % binding compared to control peptide) [4]: 46.36%

LPGLNSRQW [HTLV-1 nonamer peptide]
Score (experimentally measured binding affinity, % binding compared to control peptide) [1]: 6.78%

LPTTLFQPA [HTLV-1 nonamer peptide from Tax]
Score (experimentally measured binding affinity, % binding compared to control peptide) [3]: 119.5%

LPVMHPHGA [HTLV-1 nonamer peptide]
Score (experimentally measured binding affinity, % binding compared to control peptide) [1]: 9.38%

LSPPITWPL [HTLV-1 nonamer peptide]
Score (experimentally measured binding affinity, % binding compared to control peptide) [2]: 4.52%
Score (experimentally measured binding affinity, % binding compared to control peptide) [3]: 41.83%
Score (experimentally measured binding affinity, % binding compared to control peptide) [4]: 34.53%

LTPPITHTT [HTLV-1 nonamer peptide]
Score (experimentally measured binding affinity, % binding compared to control peptide) [3]: 0%
Score (experimentally measured binding affinity, % binding compared to control peptide) [4]: 31.05%

LVEELVDGL [HTLV-1 nonamer peptide]
Score (experimentally measured binding affinity, % binding compared to control peptide) [3]: 0%
Score (experimentally measured binding affinity, % binding compared to control peptide) [4]: 2.64%

LWLAAFAAL [HTLV-1 nonamer peptide]
Score (experimentally measured binding affinity, % binding compared to control peptide) [2]: 30.63%

MQELGIDGY [HTLV-1 nonamer peptide]
Score (experimentally measured binding affinity, % binding compared to control peptide) [3]: 48.1%

NFLQAAYRL [HTLV-1 nonamer peptide]
Score (experimentally measured binding affinity, % binding compared to control peptide) [2]: 113.8%
Score (experimentally measured binding affinity, % binding compared to control peptide) [3]: 3.16%

NYSLLASLL [HTLV-1 nonamer peptide]
Score (experimentally measured binding affinity, % binding compared to control peptide) [2]: 105.08%

PPNHRPWQM [HTLV-1 nonamer peptide]
Score (experimentally measured binding affinity, % binding compared to control peptide) [1]: 103.11%

PYHAFVERL [HTLV-1 nonamer peptide]
Score (experimentally measured binding affinity, % binding compared to control peptide) [2]: 113.04%

PYKRIEELL [HTLV-1 nonamer peptide]
Score (experimentally measured binding affinity, % binding compared to control peptide) [2]: 99.06%

PYNPTSSGL [HTLV-1 nonamer peptide]
Score (experimentally measured binding affinity, % binding compared to control peptide) [2]: 104.86%

QAAPGSPQF [HTLV-1 nonamer peptide]
Score (experimentally measured binding affinity, % binding compared to control peptide) [3]: 86.5%

QPRPPPGPC [HTLV-1 nonamer peptide]
Score (experimentally measured binding affinity, % binding compared to control peptide) [1]: 138.82%

QYLCSSLVA [HTLV-1 nonamer peptide]
Score (experimentally measured binding affinity, % binding compared to control peptide) [2]: 4.85%

RAEKKAADV [HTLV-1 nonamer peptide]
Score (experimentally measured binding affinity, % binding compared to control peptide) [1]: 2.78%

RDRQRRAEE [HTLV-1 nonamer peptide]
Score (experimentally measured binding affinity, % binding compared to control peptide) [1]: 1.54%

RGRLRRGPP [HTLV-1 nonamer peptide]
Score (experimentally measured binding affinity, % binding compared to control peptide) [1]: 1.21%

RPAPPPPSS [HTLV-1 nonamer peptide]
Score (experimentally measured binding affinity, % binding compared to control peptide) [1]: 93.08%

RRRAEKKAA [HTLV-1 nonamer peptide]
Score (experimentally measured binding affinity, % binding compared to control peptide) [1]: 0%

SARLHRHAL [HTLV-1 nonamer peptide]
Score (experimentally measured binding affinity, % binding compared to control peptide) [1]: 236.66%

SFLLSHGLI [HTLV-1 nonamer peptide]
Score (experimentally measured binding affinity, % binding compared to control peptide) [2]: 79.27%

STLTTPGLI [HTLV-1 nonamer peptide]
Score (experimentally measured binding affinity, % binding compared to control peptide) [2]: 0%
Score (experimentally measured binding affinity, % binding compared to control peptide) [4]: 0.84%

SWASILQGL [HTLV-1 nonamer peptide]
Score (experimentally measured binding affinity, % binding compared to control peptide) [2]: 123.67%

SYGLLCQTI [HTLV-1 nonamer peptide]
Score (experimentally measured binding affinity, % binding compared to control peptide) [2]: 114.37%

TPKDKTKVL [HTLV-1 nonamer peptide from Gag]
Score (experimentally measured binding affinity, % binding compared to control peptide) [1]: 113.7%

TPNIPPSFL [HTLV-1 nonamer peptide]
Score (experimentally measured binding affinity, % binding compared to control peptide) [1]: 138.52%

TTPGLIWTF [HTLV-1 nonamer peptide]
Score (experimentally measured binding affinity, % binding compared to control peptide) [2]: 215.15%

TTPNIPPSF [HTLV-1 nonamer peptide]
Score (experimentally measured binding affinity, % binding compared to control peptide) [2]: 0.43%

TWPLLPHVI [HTLV-1 nonamer peptide]
Score (experimentally measured binding affinity, % binding compared to control peptide) [2]: 118.19%

VFTLSPVII [HTLV-1 nonamer peptide]
Score (experimentally measured binding affinity, % binding compared to control peptide) [2]: 97.21%

VLQSSSFIF [HTLV-1 nonamer peptide]
Score (experimentally measured binding affinity, % binding compared to control peptide) [2]: 82.42%

VSCPEDLLV [HTLV-1 nonamer peptide]
Score (experimentally measured binding affinity, % binding compared to control peptide) [2]: 9.6%

WALPELQAL [HTLV-1 nonamer peptide]
Score (experimentally measured binding affinity, % binding compared to control peptide) [3]: 73.45%

WPLLPHVIF [HTLV-1 nonamer peptide]
Score (experimentally measured binding affinity, % binding compared to control peptide) [3]: 49.66%

WQGRLEAMW [HTLV-1 nonamer peptide]
Score (experimentally measured binding affinity, % binding compared to control peptide) [2]: 2.54%

WQMKDLQAI [HTLV-1 nonamer peptide]
Score (experimentally measured binding affinity, % binding compared to control peptide) [2]: 0%
Score (experimentally measured binding affinity, % binding compared to control peptide) [4]: 44.68%

WTFTDGTPM [HTLV-1 nonamer peptide]
Score (experimentally measured binding affinity, % binding compared to control peptide) [3]: 137.29%

WTINHLNVL [HTLV-1 nonamer peptide]
Score (experimentally measured binding affinity, % binding compared to control peptide) [3]: 1.04%

YILWDKQIL [HTLV-1 nonamer peptide]
Score (experimentally measured binding affinity, % binding compared to control peptide) [3]: 0%
Score (experimentally measured binding affinity, % binding compared to control peptide) [4]: 39%

YISQDFLNM [HTLV-1 nonamer peptide]
Score (experimentally measured binding affinity, % binding compared to control peptide) [3]: 0%
Score (experimentally measured binding affinity, % binding compared to control peptide) [4]: 10.48%

YWQGRLEAM [HTLV-1 nonamer peptide]
Score (experimentally measured binding affinity, % binding compared to control peptide) [2]: 40.32%
Score (experimentally measured binding affinity, % binding compared to control peptide) [3]: 7.1%
